Reference: patent US20120232062A1, “AZAINDAZOLES TO TREAT FLAVIVIRIDAE VIRUS INFECTION” (EIGER BIOPHARMACEUTICALS, INC., priority 2009, published 2012)
Where two headings read alike, the source gives them in different places.

Key:
HCV genotype 1b = assay: HCV 1b replicon luciferase assay; type: cell-based; details: Table 1, Huh7 HCV 1b replicon, luciferase reporter, 48 hours, read-out: 1b EC50
Outline: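 Luminescence (Steady-Glo) served as the replication read-out after 48 h compound exposure of 1b replicon-luciferase Huh7 cells seeded at 10k/well. Dosing used 5-fold serial dilutions, 10 concentrations, top 25 μM final, 0.1% DMSO, duplicates.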

[1] = Liver microsome stability, human; type: in vitro ADME
Excerpt: (§1) Metabolic stability assays are designed to measure the stability of a test compound in a variety of assay matrices from human and animal species. From a metabolism perspective, a drug would be relatively stable, have a small first-pass effect, and maintain an effective concentration in blood for a reasonable period of time. A microsomal preparation from the liver contains all CYP isozymes and other membrane-bound drug metabolizing enzymes which are responsible for the metabolism for the majority of drugs in humans. Metabolic stability in liver microsomes can determine half-life (T1/2) and intrinsic clearance (Clint). The determination of Clint may be useful to determine whether metabolism is the major elimination pathway when it is compared to total body clearance in vivo. For high metabolic stability in liver microsomes: […] Human, Sprague Dawley rat, and CD-1 mouse liver microsome samples were purchased from BD Gentest. An in vitro metabolic stability assay suitable for use in predicting first pass metabolism of the compounds useful in the methods of the invention is described in this example. […] 6 mM NADPH in 0.1 M K-phosphate buffer is prepared by dissolving 25.1 mg of NADPH tetrasodium salt in 5 mL of K-phosphate buffer. […] The plate is pre-incubated at 37° C. for 10 minutes. 15 μL of NADPH stock solution (6 mM) is added to the wells designated for Time 60 and timed. At 30 min, 15 min, and 5 min, 15 μL of NADPH stock solution (6 mM) is added to the wells. At the end of incubation, 135 μL of ACN containing IS is added to all the wells (60 min, 30 min, 15 min, 5 min and 0 min). Then 15 μL of NADPH stock solution (6 mM) is added to the wells designated as Time 0.

[2] = Liver microsome stability, rat; type: in vitro ADME, Sprague Dawley rat
Excerpt: as §1

[3] = Liver microsome stability, mouse; type: in vitro ADME, CD-1 mouse
Excerpt: as §1

[4] = Caco-2 permeability testing; type: in vitro ADME, human; details: human, 90 min; for Papp A→B at 90 min, 10 µM: read-out: Permeability (second figure of Efflux/permeability), Papp (A-B); for Papp B→A at 90 min, 10 µM: read-out: Efflux (first figure of Efflux/permeability), Papp (B-A)
Excerpt: Intestinal epithelium permeability is a critical characteristic that determines the rate and extent of human absorption and affects bioavailability of a drug candidate. Poor intestinal permeability leads to limited absorption. Generally, higher absorption is preferred. The Caco-2 cell line is a human colon adeno-carcinoma cell line that resembles the epithelial lining of the human small intestine. Several transport proteins that are expressed in human intestinal epithelium are also expressed in the Caco-2 cell model. Some transporter proteins are efflux systems which mediate the secretion of compounds from inside the cell back to the apical lumen (representative of the intestinal lumen), limiting overall absorption. In a permeability assay, the apparent permeability coefficient is measured between the apical to basolateral sides of a cell monolayer, Papp (A-B), and the basolateral to the apical side, Papp (B-A). Papp (A-B)<2×10^−6 cm/s is predictive of low permeability to the basolateral side, 2×10^−6 cm/s<Papp (A-B)<20×10^−6 cm/s is predictive of medium permeability, and Papp (A-B)>20×10^−6 cm/s is predictive of high permeability. In the B-A permeability assay, Papp (B-A) is measured and compounds evaluated for efflux potential. Together, these assay results are reported as a ratio of Papp (B-A) to Papp (A-B). Papp (B-A)/Papp (A-B)>3 are likely to be transported by one of the efflux systems, and have poor absorption. Papp (B-A)/Papp (A-B)<3 are likely to show reasonable intestinal absorption. An in vitro drug absorption assay suitable for use in predicting intestinal absorption of the compounds useful in the methods of the invention is described in this example. The embodiments of this assay described in this example were developed by Shanghai ChemPartner Co., Ltd., a corporation of China with its principal office located at 720 Cailun Road, Building No. 3, Shanghai 201203, China.
Caco-2 (ATCC, catalog No. HTB-37™) cells are cultured in growth medium (MEM+10% FBS+1% NEAA). The growth medium is prepared by adding 50 mL FBS and 5 mL NEAA to 445 mL of MEM or by adjusting the final volume according to actual needs. Trypsin-EDTA (Invitrogen, Cat #25200-072) is also used.
Hanks Balanced Salt Solution (HBSS, Invitrogen, Cat #14025-092) with 25 mM HEPES, pH 7.4, HBSS buffer with 0.2% DMSO (50 μL DMSO into 25 ml HBSS buffer), and HBSS buffer with 0.4% DMSO (100 μL DMSO into 25 ml HBSS buffer) are used.
10 mM stock solutions of a compound is prepared in DMSO and Lucifer Yellow in assay buffer using the formula (Actual Weight/Molecular Weight)/mL solvent=10 mM. Erythromycin, Metoprolol, and Atenolol are used as reference compounds. Donor solutions (10 μM for compounds and 5 μM for Lucifer Yellow) are prepared. For A-B, 4 μL of 10 mM compound stock solution and 2 μL of 10 mM Lucifer Yellow stock solution are loaded into 4 mL of HBSS buffer, and centrifuged (5 min, 4000 rpm) to precipitate undissolved particles. Supernatants are collected for compound dosing. For B-A, 4 μL (compounds) of 10 mM compound stock solution is added to 4 mL HBSS buffer with 0.2% DMSO, and centrifuged (5 min, 4000 rpm) to precipitate undissolved particles. Supernatants are collected for compound dosing.
Receiver solutions are prepared. For A-B, the solution is HBSS buffer with 0.4% DMSO. For B-A, 2 μL of 10 mM Lucifer Yellow stock solution is added to 4 mL of HBSS buffer with 0.2% DMSO. Compound solutions are prepared for standard curve (3 μM/1 μM/0.2 μM/0.04 μM/0.01 μM/0.005 μM):
1× solution: 3 μL of 20× solution (0.1-60 μM)+57 μL 0.4% DMSO HBSS+60 μL acetonitrile (ACN) with internal standard (IS, 200 ng/mL Osalmid). The assay was performed as described below
Stock cultures are maintained in MEM+10% FBS+1% NEAA, grown in 75 cm^2 tissue culture treated flasks and split (passed) 2 times weekly to maintain desired confluence. For maintenance passage, trypsinized cells are routinely distributed into new flasks at a standard passage ratio of 1:4. […]

| Structure (SMILES) | EC50 (HCV genotype 1b; Hepatitis C virus, Huh-7, 48 h) | human liver microsome (HLM, % parent remaining) ([1]; after 15 min) | human liver microsome (HLM, % parent remaining) ([1]; after 30 min) | human liver microsome (HLM, % parent remaining) ([1]; after 60 min) | rat liver microsome (RLM), % parent remaining ([2]; after 15 min) | rat liver microsome (RLM), % parent remaining ([2]; after 30 min) | rat liver microsome (RLM), % parent remaining ([2]; after 60 min) | mouse liver microsome (MLM), % parent remaining ([3]; after 15 min) | mouse liver microsome (MLM), % parent remaining ([3]; after 30 min) | mouse liver microsome (MLM), % parent remaining ([3]; after 60 min) | Papp A→B at 90 min, 10 µM ([4]; Caco-2, pH 7.4, Caco-2, A-B) | Papp B→A at 90 min, 10 µM ([4]; Caco-2, pH 7.4, Caco-2, B-A) | EC50 (HCV genotype 1b) | Papp A→B at 90 min, 10 µM ([4]; pH 7.4, Caco-2, A-B) | Papp B→A at 90 min, 10 µM ([4]; pH 7.4, Caco-2, B-A) |
| --- | --- | --- | --- | --- | --- | --- | --- | --- | --- | --- | --- | --- | --- | --- | --- |
| CC1CCCCN1CCOCc1nn(C)c2nc(N3CCCCCC3)ccc12 (stereo not shown) [compound 1549] | 4000 nM | 16 % parent remaining | 11 % parent remaining | 13 % parent remaining | 52 % parent remaining | 31 % parent remaining | 17 % parent remaining | 27 % parent remaining | 17 % parent remaining | 13 % parent remaining |  |  |  |  |  |
| CC1CCCN1CCCc1nn(C)c2nc(N3CCCCCCC3)ccc12 (stereo not shown) [compound 1452] | 1200 nM | 32 % parent remaining | 13 % parent remaining | 3 % parent remaining | 2 % parent remaining | 0.8 % parent remaining | 0.5 % parent remaining | 1.7 % parent remaining | 0.9 % parent remaining | 0.3 % parent remaining |  |  |  |  |  |
| CC1CCC(C)N1CCOCc1nn(C)c2nc(N3CCCCCC3)ccc12 (stereo not shown) [compound 1540] | 2700 nM | 17 % parent remaining | 9 % parent remaining | 4 % parent remaining | 17 % parent remaining | 2 % parent remaining | 4 % parent remaining | 34 % parent remaining | 18 % parent remaining | 10 % parent remaining |  |  |  |  |  |
| Cn1nc(C(=O)NC2CCN(CCN3CCOCC3)CC2)c2ccc(NC3CCCCCCC3)nc21 [compound 1471] | 870 nM |  |  |  |  |  |  |  |  |  | 10.9 ×10⁻⁶ cm/s | 9.6 ×10⁻⁶ cm/s |  |  |  |
| COc1ccc(CN2CCC(NC(=O)c3nn(C)c4nc(N5CCCCCC5)ccc34)CC2)cc1 [compound 1116] |  |  |  |  |  |  |  |  |  |  | 0.5 ×10⁻⁶ cm/s | 0.3 ×10⁻⁶ cm/s | 1300 nM |  |  |
| Cn1nc(C(=O)NC2CCN(CCN3CCCC3)CC2)c2ccc(NC3CCCCCCC3)nc21 [compound 1469] | 250 nM |  |  |  |  |  |  |  |  |  | 0.9 ×10⁻⁶ cm/s | 2.9 ×10⁻⁶ cm/s |  |  |  |
| Cn1nc(C(=O)NC2CCN(CCN3CCCCC3CO)CC2)c2ccc(N3CCCCCC3)nc21 (stereo not shown) [compound 1559] | 1800 nM | 65 % parent remaining | 32 % parent remaining | 7 % parent remaining | 57 % parent remaining | 31 % parent remaining | 8 % parent remaining | 54 % parent remaining | 27 % parent remaining | 5 % parent remaining |  |  |  |  |  |
| Cc1ccc(C(=O)Nc2nn(C)c3nc(N4CCCCCC4)ccc23)s1 [compound 841] | 1600 nM |  |  |  |  |  |  |  |  |  | 9.7 ×10⁻⁶ cm/s | 1.9 ×10⁻⁶ cm/s |  |  |  |
| CN1CCC(NC(=O)c2nn(C)c3nc(N4CCCCCCC4)ccc23)CC1 [compound 1306] | 360 nM |  |  |  |  |  |  |  |  |  | 9.1 ×10⁻⁶ cm/s | 4.4 ×10⁻⁶ cm/s |  |  |  |
| O=C(NC1CCNCC1)c1nn(Cc2ccccc2Cl)c2nc(N3CCCCCC3)ccc12 [compound 853] | 2900 nM |  |  |  |  |  |  |  |  |  |  |  |  | 0.4 ×10⁻⁶ cm/s | 0.4 ×10⁻⁶ cm/s |
| Clc1ccc(Cn2nc(COCCN3CCCC3)c3ccc(N4CCCCCCC4)nc32)cc1 [compound 1203] | 3300 nM |  |  |  |  |  |  |  |  |  | 7.8 ×10⁻⁶ cm/s | 7.3 ×10⁻⁶ cm/s |  |  |  |
